This note sets out measurements from patent US11925672B2, “Peptide having antioxidant activity and composition containing same” (SEMPIO FOODS COMPANY, priority 2018, dated 2024).

“Also recorded” adds a separate entry of the source. Numbered stars: 1 amine (or outer) side, 2 acyl side, 3 side chain; on linkers, the order of the positions; unused ones are H or OH. Square brackets hold non-standard residues; d marks the D form. Ends that are not written are not given here. γGlu = O=C(O)[C@H](CCC(=O)[*:2])N[*:1]

A short description of assay [1]: DPPH-scavenging ability assay. The format is biochemical. Particulars: peptides; vs GSH. As to the method:
2. DPPH (2,2-Diphenyl-1-Picryl-Hydrazyl-Hydrate) Assay Method
The antioxidant activity due to the DPPH-scavenging ability of yeast hydrolyzates was measured using the methods of Choi Chang-seop et al. (2003) and Shekhar et al. (2014). 20 μl of a sample (1 to 5000 μg/ml) dissolved in distilled water was added to 180 μl of an ethanol solution containing DPPH (0.111 mM). The resulting mixture was allowed to react at 25° C. for 30 minutes, and absorbance was measured at 517 nm. Ascorbic acid was used to create the standard curve, and DPPH-scavenging ability (%) was calculated and expressed by the equation of [(absorbance upon no addition of sample−absorbance of sample)/absorbance upon no addition of sample]×100.
(§1) The DPPH-scavenging ability and reducing power of the fractions of respective yeast hydrolyzates (Preparation Examples 1 to 4) were measured using the same method of measuring DPPH-scavenging ability and reducing power as in Experimental Example 1.
For orientation: Loss of DPPH colour is used to gauge radical scavenging.

Another assay relates to SOD2 mRNA. The assay is described as follows: SOD2 mRNA expression level by real-time PCR in Tert-BHP-treated HEK293 cells. The format is cell-based. Particulars: Tert-BHP 300 μM, peptide 500 μM, 18 hours; for effect on SOD2 mRNA expression: FIG. 6; for SOD2 mRNA expression compared to positive control GSH: vs GSH. As for the experimental part: The expression of SOD2 mRNA as another antioxidant factor was determined. The cell line culture, RNA extraction, cDNA synthesis and PCR experiments were performed in the same manner as in Experimental Example 5 above. A detailed description thereof is given below.
An HEK293 cell (kidney cell) line was seeded at a density of 6.6×10^5/well in DMEM (Dulbecco's Modified Eagle's Medium) medium on a 6-well plate and cultured at 37° C. and 5% CO2 for 24 hours. The next day, the medium was exchanged with serum and amino-acid-free media, and then the cells were further cultured for 20 hours or longer. The cells were treated with Tert-BHP (300 μM) and 500 μM 100 types of peptides, and then cultured for 18 hours.
RNA was extracted from the cells treated with 100 types of peptides in (1) using TRIzol (Thermo Fisher Scientific). A GoScript™ Reverse Transcription System (Promega, Wisconsin, USA) was used to synthesize cDNA from the RNA. The cDNA was synthesized by performing annealing with 1 μg RNA, 0.5 μg of an oligo dt primer, 0.5 μg of a random primer, and RT-PCR pre-mixture at 25° C. for 5 minutes, extension at 42° C. for 60 minutes, and inactivation at 70° C. for 15 minutes.
(§2) PCR was performed using Maxime™ PCR PreMix (i-StarTaq) (Intron Biotechnology, Korea). Real-time PCR was performed using SsoAdvanced™ Universal SYBR® Green Supermix (Bio-Rad, USA). 100 ng of cDNA, 2 μM (pmol/μl) primers, 10 μl of 2X SsoAdvanced™ Universal SYBR® Green Supermix and DW were added to the PCR plate well. Then, the temperature was cyclically adjusted to 95° C. for 3 minutes, 95° C. for 10 seconds and 58° C. for 40 seconds for a total of 40 cycles. A PCR reaction was performed using the CFX96 Touch™ Real-Time PCR Detection System (Bio-Rad, California, USA), and fluorescence intensity was measured at the end of each cycle.
For orientation: In qPCR the cycle at which signal appears reflects the starting amount.

Assay [2] is described as follows: Reducing power assay (method of Oyaizu). The following applies: peptides; vs GSH. As for the experimental part:
3. Reducing Power Assay Method
The reducing power of yeast hydrolysates was measured using the method of Oyaizu (1986). Specifically, a sample (1-5000 μg/ml, 60 μl) dissolved in distilled water was mixed with phosphate buffer (150 μl, 0.2M, pH 6.6) and potassium ferricyanide (K 3 Fe(CN) 6, 150 μl, 1%), followed by reacting at 50° C. for 20 minutes. Further, 150 μl of trichloroacetic acid (10%) was added thereto, followed by centrifugation at 2,000 g for 10 minutes. 150 μl of the supernatant containing the sample was added to 150 μl of DW and FeCl3 (30 μl, 0.1%). The resulting mixture was allowed to react at 25° C. for 10 minutes, and absorbance was measured at 700 nm.
as §1

The next assay has as its system Nrf2 mRNA. As to the kind of experiment: Nrf2 mRNA expression level by real-time PCR in Tert-BHP-treated HEK293 cells. The format is cell-based. Particulars: Tert-BHP 300 μM, peptide 500 μM, 18 hours; for effect on expression of Nrf2 mRNA: FIGS. 5A to 5C; for Nrf2 mRNA expression compared to positive control GSH: vs GSH. As to the method: In the present invention, the antioxidant activity was compared between the 100 types of peptides, and the change in Nrf2 mRNA expression was measured through PCR in order to select the final peptide.
An HEK293 cell (kidney cell) line was seeded at a density of 6.6×10^5/well in DMEM (Dulbecco's Modified Eagle's Medium) medium on a 6-well plate and cultured at 37° C. under 5% CO2 for 24 hours. The next day, the medium was exchanged with serum and amino-acid-free media, and then the cells were further cultured for 20 hours or longer. The cells were treated with Tert-BHP (300 μM) and 500 μM 100 types of peptides, and then cultured for 18 hours.
RNA was extracted from the cells treated with 100 types of peptides in (1) using TRIzol (Thermo Fisher Scientific). A GoScript™ Reverse Transcription System (Promega, Wisconsin, USA) was used to synthesize cDNA from the RNA. The cDNA was synthesized by performing annealing using 1 μg of RNA, 0.5 μg of an oligo dt primer, 0.5 μg of a random primer and RT-PCR pre-mixture at 25° C. for 5 minutes, extension at 42° C. for 60 minutes, and inactivation at 70° C. for 15 minutes.
as §2, with “using a” for “using the”

Take “γ-GLU-VAL-CYS ([γGlu]-Val-Cys; also: gamma-glutamyl isopeptide bond (Glu side chain to Val))”: the “DPPH-scavenging ability of peptide compared to GSH” value in assay [1] is “comparable or superior to GSH”. Also, in the assay with SOD2 mRNA, the “effect on SOD2 mRNA expression” value is given as “increased SOD2 mRNA expression” and the “SOD2 mRNA expression compared to positive control GSH” value was “remarkably excellent; also recorded: statistically significant activity”. In assay [2], the “reducing power of peptide compared to GSH” value (from here on “reducing power of peptide”) is “comparable or superior to GSH”. Further, in the assay on Nrf2 mRNA, the “effect on expression of Nrf2 mRNA” value was “improve the expression of Nrf2 mRNA” and the “Nrf2 mRNA expression compared to positive control GSH” value is on record as “remarkably excellent effect; also recorded: statistically significant activity; also recorded: comparable or superior to GSH”.
With γ-GLU-GLN-GLU ([γGlu]-Gln-Glu), the “DPPH-scavenging ability of peptide compared to GSH” value in assay [1] was “comparable or superior to GSH”. Further, in the assay on SOD2 mRNA, the “effect on SOD2 mRNA expression” value was “increased SOD2 mRNA expression” and the “SOD2 mRNA expression compared to positive control GSH” value is “remarkably excellent; also recorded: statistically significant activity”. Moreover, the “reducing power of peptide” value in assay [2] is on record as “comparable or superior to GSH”. Further, in the assay with Nrf2 mRNA, the “effect on expression of Nrf2 mRNA” value is reported as “improve the expression of Nrf2 mRNA” and the “Nrf2 mRNA expression compared to positive control GSH” value is “remarkably excellent effect; also recorded: statistically significant activity; also recorded: comparable or superior to GSH”.
Regarding “γ-GLU-THR-GLY ([γGlu]-Thr-Gly; also: gamma-glutamyl isopeptide bond (Glu side chain to Thr))”, the “DPPH-scavenging ability of peptide compared to GSH” value in assay [1] was “comparable or superior to GSH”. Besides, in the assay on SOD2 mRNA, the “effect on SOD2 mRNA expression” value is on record as “increased SOD2 mRNA expression” and the “SOD2 mRNA expression compared to positive control GSH” value is given as “remarkably excellent; also recorded: statistically significant activity”. Also, in assay [2], the “reducing power of peptide” value is given as “comparable or superior to GSH”. In the assay with Nrf2 mRNA, the “effect on expression of Nrf2 mRNA” value was “improve the expression of Nrf2 mRNA” and the “Nrf2 mRNA expression compared to positive control GSH” value is “remarkably excellent effect; also recorded: statistically significant activity; also recorded: comparable or superior to GSH”.
Consider “γ-GLU-VAL-LYS ([γGlu]-Val-Lys; also: gamma-glutamyl isopeptide bond (Glu side chain to Val))”, for which, in the assay on SOD2 mRNA, the “effect on SOD2 mRNA expression” value is “increased SOD2 mRNA expression”. Besides, in the assay on Nrf2 mRNA, the “effect on expression of Nrf2 mRNA” value was “improve the expression of Nrf2 mRNA”.
γ-GLU-GLN-GLN ([γGlu]-Gln-Gln): the “effect on SOD2 mRNA expression” value in the assay on SOD2 mRNA is “increased SOD2 mRNA expression”. Besides, in the assay on Nrf2 mRNA, the “effect on expression of Nrf2 mRNA” value is recorded as “improve the expression of Nrf2 mRNA”.
On to “γ-GLU-VAL-HIS ([γGlu]-Val-His; also: gamma-glutamyl isopeptide bond (Glu side chain to Val))”, for which, in the assay with SOD2 mRNA, the “effect on SOD2 mRNA expression” value is given as “increased SOD2 mRNA expression” and the “SOD2 mRNA expression compared to positive control GSH” value is on record as “remarkably excellent”. In the assay on Nrf2 mRNA, the “effect on expression of Nrf2 mRNA” value was “improve the expression of Nrf2 mRNA”.
